Assays:
[1] = biological target: T1, CYP3A4 (Homo sapiens, UniProt P08684); assay: Evaluation of CYP3A4 activity inhibitory action; type: in vitro ADME; conditions: Human CYP3A4BR EasyCYP Bactosomes, 7-Benzyloxy-4-(trifluoromethyl)-coumarin
T1 construct: purchased Cypex, Ltd; host or cells: E. coli membranes (Bactosomes)
Protocol: Evaluation of CYP3A4 Activity Inhibitory Action
To a 50 mM potassium phosphate buffer solution (pH 7.4), 5 nM Human CYP3A4BR EasyCYP Bactosomes (Cypex, Ltd.), 50 μM 7-Benzyloxy-4-(trifluoromethyl)-coumarin, cofactor mix (0.0081 mM β-NADP^+, 0.4 mM G-6-P, 0.4 mM MgCl2, and 0.2 U/mL G-6-P DH(Y)), and 0.01% Pluronic F-127 were added, and the mixture was incubated for 45 minutes at 37° C. The reaction was initiated by adding the cofactor mix. After the incubation, 0.5 M Tris base/acetonitrile (20:80) was added thereto as a reaction terminating liquid, and the resulting mixture was stirred. Subsequently, the fluorescence intensity (excitation: 405 nm, emission: 535 nm) was measured. The reaction was carried out in duplicate. The results are presented as the inhibition rate at 10 μM of the test compound.

[2] = tested on: mouse PSNL model; assay: Mechanical allodynia in mouse PSNL model, peroral administration; type: in vivo; conditions: perorally administered, 10 mg/kg and 30 mg/kg, compared to the vehicle group
Protocol: Mechanical Allodynia in Mouse PSNL Model
Production of a mouse PSNL model was carried out according to the method of Seltzer, et al. A mouse was subjected to inhalation anesthesia with isoflurane. The femoral region of the mouse was shaved and disinfected with isodine. The skin on the thighbone of the mouse was incised, the fascia underneath the skin was cut, and the biceps femoris muscle was divided at a site between the heads of muscles. The sciatic nerve underneath the incision was checked, and then the sciatic nerve was detached without damaging the nerve. The needle of an 8-0 silk suture with a needle was passed through the sciatic nerve so as to penetrate through the nerve, and thus a portion of about ½ to ⅓ of the sciatic nerve was ligated. The skin was sutured, and the mouse was kept for about 7 days. The surgery of a Sham control mouse was performed only for checking of the sciatic nerve, and the skin was sutured.
The measurement of pain threshold was carried out after the mouse was transferred into a cage for measurement and was waited until exploratory behavior had disappeared. […] The 50% threshold was calculated by an up-down method by referring to the method of Chaplan, et al. (Quantitative assessment of tactile allodynia in the […]. J Neurosci Methods, 53, 1994, 55-63). […]

[3] = biological target: T2, human Cav3.2 channels (Homo sapiens, UniProt O95180); assay: Intracellular calcium concentration measurement (Fluo-4 AM) in stable cells expressing human Cav3.2 channels, buffer A / buffer B; type: cell-based; conditions: Tables 2 to 6; buffer A, equilibrium potential of potassium −92 mV; read-out: Inhibitory action of buffer A (inactivated state)
T2 construct: expressed in transfected cells; host or cells: HEK293 cells (ATCC No. CRL-1573), plasmid pcDNA3.1(+)
T2 sequence (O95180 whole entry): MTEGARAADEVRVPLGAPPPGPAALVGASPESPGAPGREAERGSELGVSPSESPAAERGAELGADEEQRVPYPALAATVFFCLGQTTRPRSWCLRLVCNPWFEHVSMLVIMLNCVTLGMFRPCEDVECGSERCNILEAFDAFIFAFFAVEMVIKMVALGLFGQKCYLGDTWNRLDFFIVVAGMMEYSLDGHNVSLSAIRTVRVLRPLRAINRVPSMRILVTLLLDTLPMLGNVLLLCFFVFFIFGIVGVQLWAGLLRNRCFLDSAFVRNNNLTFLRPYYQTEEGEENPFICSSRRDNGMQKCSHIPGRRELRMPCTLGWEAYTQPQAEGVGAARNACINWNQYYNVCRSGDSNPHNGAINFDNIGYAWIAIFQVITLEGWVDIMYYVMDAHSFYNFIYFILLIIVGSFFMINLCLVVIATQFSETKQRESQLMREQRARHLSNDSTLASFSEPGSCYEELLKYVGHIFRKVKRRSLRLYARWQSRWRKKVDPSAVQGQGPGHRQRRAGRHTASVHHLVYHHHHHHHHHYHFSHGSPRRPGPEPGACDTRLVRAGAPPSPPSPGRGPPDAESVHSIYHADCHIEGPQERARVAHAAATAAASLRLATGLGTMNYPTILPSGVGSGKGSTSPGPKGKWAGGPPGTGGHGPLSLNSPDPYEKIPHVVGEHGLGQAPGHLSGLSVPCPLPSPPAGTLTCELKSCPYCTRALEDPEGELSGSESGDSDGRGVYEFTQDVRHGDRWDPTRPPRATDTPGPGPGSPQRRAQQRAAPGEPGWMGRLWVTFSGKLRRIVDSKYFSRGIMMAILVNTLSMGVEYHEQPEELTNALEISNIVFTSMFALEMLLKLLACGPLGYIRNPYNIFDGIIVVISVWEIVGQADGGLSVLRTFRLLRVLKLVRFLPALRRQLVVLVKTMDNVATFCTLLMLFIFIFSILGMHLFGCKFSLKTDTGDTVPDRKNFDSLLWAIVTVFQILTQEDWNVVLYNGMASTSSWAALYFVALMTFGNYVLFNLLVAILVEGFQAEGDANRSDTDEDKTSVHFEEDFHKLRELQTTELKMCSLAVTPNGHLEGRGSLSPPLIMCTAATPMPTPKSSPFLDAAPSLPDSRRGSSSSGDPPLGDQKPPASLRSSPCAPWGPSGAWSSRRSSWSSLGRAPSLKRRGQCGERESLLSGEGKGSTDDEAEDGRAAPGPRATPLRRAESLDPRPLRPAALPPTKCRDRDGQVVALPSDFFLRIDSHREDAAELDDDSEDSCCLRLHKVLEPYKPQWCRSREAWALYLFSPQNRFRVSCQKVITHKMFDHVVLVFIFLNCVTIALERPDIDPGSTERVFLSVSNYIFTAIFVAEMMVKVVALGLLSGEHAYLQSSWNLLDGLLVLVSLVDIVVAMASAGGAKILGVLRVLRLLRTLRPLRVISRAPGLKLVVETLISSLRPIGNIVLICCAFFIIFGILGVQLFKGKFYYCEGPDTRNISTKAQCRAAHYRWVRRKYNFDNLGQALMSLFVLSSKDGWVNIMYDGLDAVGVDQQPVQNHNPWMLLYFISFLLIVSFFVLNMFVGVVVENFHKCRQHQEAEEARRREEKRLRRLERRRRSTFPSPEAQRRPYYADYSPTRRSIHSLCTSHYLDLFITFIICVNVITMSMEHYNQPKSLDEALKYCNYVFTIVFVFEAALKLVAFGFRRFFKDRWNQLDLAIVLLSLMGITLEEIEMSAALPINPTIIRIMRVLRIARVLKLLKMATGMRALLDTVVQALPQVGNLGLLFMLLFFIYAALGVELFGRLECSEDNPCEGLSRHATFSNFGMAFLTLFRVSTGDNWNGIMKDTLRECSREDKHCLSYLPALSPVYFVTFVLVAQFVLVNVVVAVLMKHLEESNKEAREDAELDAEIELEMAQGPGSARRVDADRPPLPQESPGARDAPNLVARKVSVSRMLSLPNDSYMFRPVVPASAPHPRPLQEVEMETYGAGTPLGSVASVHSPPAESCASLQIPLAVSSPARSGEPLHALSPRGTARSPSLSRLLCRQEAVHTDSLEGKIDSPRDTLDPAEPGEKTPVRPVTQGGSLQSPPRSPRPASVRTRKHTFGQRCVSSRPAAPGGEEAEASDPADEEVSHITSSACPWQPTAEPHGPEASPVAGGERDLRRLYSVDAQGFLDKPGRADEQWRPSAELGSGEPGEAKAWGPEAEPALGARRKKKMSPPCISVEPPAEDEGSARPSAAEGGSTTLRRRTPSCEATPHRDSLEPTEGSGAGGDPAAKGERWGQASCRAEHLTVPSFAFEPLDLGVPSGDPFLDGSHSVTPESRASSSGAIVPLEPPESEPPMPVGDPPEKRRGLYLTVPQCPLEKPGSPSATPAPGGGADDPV
Outline: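 State-dependent Cav3.2 inhibition compared in two buffers differing in potassium equilibrium potential (−92 vs −110 mV). Stable HEK293 line, Fluo-4 dye; compound 15 min, room temperature, dark, then KCl addition (83.8 or 91.8 mM) triggers calcium influx read 10 s; IC50 from peak increment over baseline.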

[4] = biological target: T2, human Cav3.2 channels; assay: Electrophysiological evaluation, whole-cell patch-clamp with automatic patch-clamp system; type: cell-based
Outline: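 Stable human Cav3.2 cell line, automated whole-cell patch clamp at room temperature. Peak inward current on 100 msec steps to −20 mV every 10 sec; five concentrations applied cumulatively by perfusion. Inhibition scored at 0.3 μM compound from −80 mV holding, or 3 μM from −100 mV.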

T1 sequence (P08684 whole entry): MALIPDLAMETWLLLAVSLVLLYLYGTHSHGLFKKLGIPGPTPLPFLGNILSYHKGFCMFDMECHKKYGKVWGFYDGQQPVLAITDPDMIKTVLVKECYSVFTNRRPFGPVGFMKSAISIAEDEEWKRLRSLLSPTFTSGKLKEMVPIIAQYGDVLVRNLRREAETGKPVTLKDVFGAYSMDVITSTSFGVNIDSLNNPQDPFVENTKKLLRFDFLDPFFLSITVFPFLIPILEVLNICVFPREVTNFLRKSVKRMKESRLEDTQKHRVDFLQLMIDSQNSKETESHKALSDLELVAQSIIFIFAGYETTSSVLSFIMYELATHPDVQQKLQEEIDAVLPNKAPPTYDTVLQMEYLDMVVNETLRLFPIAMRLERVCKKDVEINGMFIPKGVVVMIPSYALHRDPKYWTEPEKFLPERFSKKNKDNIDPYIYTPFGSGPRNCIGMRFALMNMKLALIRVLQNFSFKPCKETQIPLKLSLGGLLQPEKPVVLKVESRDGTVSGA

- CYP3A4 activity inhibition ratio at 10 μM of test compound [1]: 4.2%
- IC50 [3]: ≤ 0.1 µM
- inhibition at 0.3 µM ([4]; 0.3 μM, holding potential −80 mV, read-out: Cav3.2 channel current inhibition ratio at 0.3 μM of test compound (holding potential −80 mV)): 81%
- Cav3.2 channel current inhibition ratio at 3 μM of test compound (holding potential −100 mV) ([4]; 3 μM, holding potential −100 mV): 49%
Compound: C[C@@H](NC(=O)[C@H]1C[C@@H]1c1nc2ccccc2[nH]1)c1cc2cc(F)ccc2o1 [Example 65, (1S,2S)-2-(1H-benzo[d]imidazol-2-yl)-N—((R)-1-(5-fluorobenzofuran-2-yl)ethyl)cyclopropane-1-carboxamide]
- mechanical allodynia (pain threshold, von Frey filament test) [2]: suppressed mechanical allodynia statistically significantly
